Data set [1] in a line: Average zeta potential of liposomes made from cationic silyl lipids (Tables 1A, 1B). The data set is classed as physicochemical. An excerpt:
(§1) For colloidal dispersions, zeta potential is a useful measurement of the difference in electrokinetic potential between the dispersion medium and the stationary layer of fluid attached to the dispersed particle. The magnitude of the zeta potential indicates the degree of electrostatic repulsion between adjacent, similarly charged particles in a dispersion. A high zeta potential is an indicator of stability (resistance to aggregation). Both zeta potential and size can be determined using a zeta Potential Analyzer. Clogston J D et al., Methods Mol Biol. 2011; 697:63-70.
(§2) FIGS. 5A to 5C and TABLE 1A provide an illustration of such empirical determination: the effect of the length of the lipid tail, the end group, and the positioning of the silyl group. In this illustration, other properties of the lipid structure and liposome composition were kept constant. The liposome formulations just contained the cationic silyl lipids indicated, and Milli Q™ purified water.
(§3) FIGS. 7A to 7C and TABLE 1B provide another illustration of how structure of the silyl lipid can affect properties of nanoparticles.
(§4) Structural features such as tail length, positioning of the silicon group (n1, n2), and branching (as in 8,Si, (8)3-DOTMA) can influence liposome properties.

Data set [2] in a line: Average size of liposomes made from cationic silyl lipids (Tables 1A, 1B). It counts as physicochemical. The settings on record: for Avg. Size: Table 1A, liposome formulations of the cationic silyl lipid only in Milli Q purified water; for Avg size: Table 1B, sila-DOTMA analog liposomes.
Source text: as §1, §2, §3, §4

[3] abbreviates: Table 1A, liposome formulations of the cationic silyl lipid only in Milli Q purified water.
The mark [4] stands for this setting: Table 1B, sila-DOTMA analog liposomes, two values given.

The values that follow come from US12396949B2, “Technology for improving properties of lipid nanoparticles using lipids in which cis-unsaturated bonds are substituted with a silicon atom” (The Regents of the University of California, priority 2022, dated 2025).

Structures are written as SMILES. Where “and” joins values, the source holds several entries; their conditions need not be identical. Identical values can stand only once.

As for `C[N+](C)(C)CC(COC(=O)CCCCCCC[Si](C)(C)C1CCCCC1)OC(=O)CCCCCCC[Si](C)(C)C1CCCCC1` (stereo not drawn) [QP8SiCy], the “Avg. zeta Potential” value in data set [1] (setting [3]) was 57 mV and 71 mV. Also, the “Avg. Size” value in data set [2] is recorded as 29 nm.
`CCCCCCCC[Si](C)(C)CCCCCCOCC(C[N+](C)(C)C)OCCCCCC[Si](C)(C)CCCCCCCC` (stereo not drawn) [6, Si, 8-DOTMA] yielded an Avg. zeta Potential in data set [1] (setting [4]) of 64 mV. Further, the Avg size in data set [2] is 216 nm.
Consider `CCCCCCCC[Si](C)(C)CCCCCCCC(=O)OCC(C[N+](C)(C)C)OC(=O)CCCCCCC[Si](C)(C)CCCCCCCC` (stereo not drawn) [QP8Si8], for which, in data set [1] (setting [3]), the “Avg. zeta Potential” value came to 67 mV. Also, the “Avg. Size” value in data set [2] is reported as 38 nm.
In the case of `CCCCCCCCCCC[Si](C)(C)CCCCC(=O)OCC(C[N+](C)(C)C)OC(=O)CCCC[Si](C)(C)CCCCCCCCCCC` (stereo not drawn) [QP5Si11], in data set [1] (setting [3]), the “Avg. zeta Potential” value came to 60 mV. In data set [2], the “Avg. Size” value was determined as 59 nm.
Take `C[N+](C)(C)CC(COCCCCCCCC[Si](C)(C)c1ccccc1)OCCCCCCCC[Si](C)(C)c1ccccc1` (stereo not drawn) [8, Si, Ph-DOTMA]: the Avg. zeta Potential in data set [1] (setting [4]) is given as 62 mV. Moreover, in data set [2], the Avg size is 215 nm.
Turning to `C[N+](C)(C)CC(COC(=O)CCCCCCC[Si](C)(C)c1ccccc1)OC(=O)CCCCCCC[Si](C)(C)c1ccccc1` (stereo not drawn) [QP8SiPh], the “Avg. zeta Potential” value in data set [1] (setting [3]) was 59 mV and 73 mV. In addition, in data set [2], the “Avg. Size” value was 21 nm.
For `C[N+](C)(C)CC(COC(=O)CCCC[Si](C)(C)C1CCCCC1)OC(=O)CCCC[Si](C)(C)C1CCCCC1` (stereo not drawn) [QP5SiCy], the “Avg. zeta Potential” value in data set [1] (setting [3]) was 71 mV and 124 mV. For the same molecule, the “Avg. Size” value in data set [2] is listed as 80 nm.
Consider `CCCC[Si](C)(C)CCCCCCCC(=O)OCC(C[N+](C)(C)C)OC(=O)CCCCCCC[Si](C)(C)CCCC` (stereo not drawn) [QP8Si4], for which the “Avg. zeta Potential” value in data set [1] (setting [3]) is 33 mV and 44 mV. Also, the “Avg. Size” value in data set [2] came out at 24 nm.
Take `C[N+](C)(C)CC(COC(=O)CCCC[Si](C)(C)c1ccccc1)OC(=O)CCCC[Si](C)(C)c1ccccc1` (stereo not drawn) [QP5SiPh]: in data set [1] (setting [3]), the “Avg. zeta Potential” value is given as 62 mV. In addition, the “Avg. Size” value in data set [2] stood at 80 nm.
With `CCCCCC[Si](C)(C)CCCCCCCC(=O)OCC(C[N+](C)(C)C)OC(=O)CCCCCCC[Si](C)(C)CCCCCC` (stereo not drawn) [QP8Si6], the “Avg. zeta Potential” value in data set [1] (setting [3]) is recorded as 62 mV. In addition, the “Avg. Size” value in data set [2] is reported as 38 nm.
Consider `CCCC[Si](C)(C)CCCCCCOCC(C[N+](C)(C)C)OCCCCCC[Si](C)(C)CCCC` (stereo not drawn) [6, Si, 4-DOTMA], for which the Avg. zeta Potential in data set [1] (setting [4]) amounted to 65 mV. This molecule displayed an Avg size in data set [2] of 79 nm.
On to `CCCCCCCCC[Si](C)(C)CCCCCCC(=O)OCC(C[N+](C)(C)C)OC(=O)CCCCCC[Si](C)(C)CCCCCCCCC` (stereo not drawn) [QP7Si9], for which the “Avg. zeta Potential” value in data set [1] (setting [3]) was determined as 74 mV. Moreover, in data set [2], the “Avg. Size” value stood at 59 nm.
